What follows are compounds tested on mosquito larvae, Culex pipiens (assay: Larvicidal activity against mosquito larvae in water). Settings: 1 ml acetone solution in 100 ml water, 3rd instar larvae.
Type: in vivo
Experimental: Representative compounds of the N,N'-sulfinyldicarbamate esters of the invention were tested for insecticidal activity against two insect species, house flies, Musca domestica, and mosquito larvae, Culex pipiens. Stock 1% concentrated solutions of each of the test compounds were made in acetone, and such solutions diluted with acetone to a concentration of 0.001-0.1%. House flies were treated topically on the notum by 1 μl of each of the diluted acetone solutions and percent mortality was counted 24 hours after application. Insects were held at a constant temperature of 60° F. Larvicidal activity was determined by applying 1 ml of the acetone solution in 100 ml of water containing 20 3rd instar mosquito larvae. Results are presented as LD50 in μg/g for house flies and LC50 in ppm for mosquito larvae.

Question: How did the “Culex LC50” value turn out when CCOC(=O)N(C)[S+]([O-])N(C)C(=O)Oc1cccc2c1OC(C)(C)C2 (stereo not drawn) [VIII, 2,3-dihydro-2,2-dimethylbenzofuranyl-7 N-[N'-(ethoxycarbonyl)-N'-(methylaminosulfinyl)]-N-methylcarbamate] was run?
Answer: The value was 0.04 ppm.

Question: Which “Culex LC50” value does the source give for CCCCCCCOC(=O)N(C)[S+]([O-])N(C)C(=O)Oc1cccc2c1OC(C)(C)C2 (stereo not drawn) [X, 2,3-dihydro-2,2-dimethylbenzofuranyl-7 N-[N'-(n-heptoxycarbonyl)-N'-(methylaminosulfinyl)]-N-methylcarbamate] here?
Answer: The value was 0.015 ppm.

Question: How did the “Culex LC50” value turn out when CCCOC(=O)N(C)[S+]([O-])N(C)C(=O)Oc1ccccc1OC(C)C (stereo not drawn) [XI, 2-isopropoxyphenyl N-[N'-(n-propoxycarbonyl)-N'-(methylaminosulfinyl)]-N-methylcarbamate] was run?
Answer: The value was 0.18 ppm.

From US4315027A, “Pesticidal symmetrical and asymmetrical sulfinyldicarbamates containing a heterocyclic group” (priority 1980, dated 1982)
